The test system of the series is cell. The experiment in a line: cytotoxicity in a physiological environment (FIG. 8A). It is filed as cell-based. To be noted: no alternating magnetic field.

The structures appear in SMILES notation.

On to `COc1cccc2c1C(=O)c1c(O)c3c(c(O)c1C2=O)C[C@@](O)(C(=O)CO)C[C@@H]3O[C@H]1C[C@H](N)[C@H](O)[C@H](C)O1` [free DOX, doxorubicin], for which the non-specific cytotoxicity result is reported as “high”.

Source of the values: patent publication US20190008773A1, “MAGNETIC FIELD SENSITIVE NANO COMPLEX AND METHOD FOR MANUFACTURING THE SAME” (GWANGJU INSTITUTE OF SCIENCE AND TECHNOLOGY, priority 2017, published 2019).
